# Where two headings read alike, the source gives them in different places.
# Experiments:
# LPS-induced plasma IL-6 = LPS-induced plasma IL-6 after oral pretreatment in rats; format: in vivo, Sprague-Dawley rats; settings: Mean ± St. Dev, n = 6-8; for Plasma IL-6 concentrations 4 hours after LPS: vehicle 13989 ± 6125; for Plasma IL-6 concentrations 1.5 hours after LPS: vehicle 40423 ± 8653
# Protocol: (§1) LPS was diluted with sterile saline to […] and sonicated at 40° C. for 20 minutes to generate a stock solution and stored at 4° C. Each day of use, the stock solution was further diluted to 0.03 mg/mL in sterile saline.
# (§2) Male Sprague-Dawley rats with indwelling femoral and jugular venous catheters (n=6-8 per dose and test article group) were used in this study. […] Sixty minutes after the oral dose, 0.03 mg/kg of LPS in 1 mL/kg saline was infused into the jugular vein.
# (§3) Blood samples were collected from the femoral vein into heparin-coated syringes 15 minutes prior to the LPS infusion (45 minutes after oral doses of test article), 90 minutes after the LPS infusion and 4 hours after the LPS infusion. Plasma was prepared by centrifugation of the blood samples at 14,000 rpm for 10 minutes. Plasma samples were stored at −70 ° C. until analysis.
# [1] = human, in vivo, po
# Excerpt: Following screening, eligible healthy volunteer subjects were admitted to a single clinical study site and were randomized to 1 of 2 treatment sequences. […] In each period, a standardized breakfast was provided to subjects prior to administration of study drug (to compare the PK profiles in the clinically relevant fed state) and plasma samples were collected over a 48-hour period after dosing for evaluation of PK. Dosing between the 2 periods was separated by a minimum of 7 days. Subjects completed the study upon completion of the 48-hour post-dose assessments following dosing period 2.
# All capsules were identical in size, shape, and external color.
# [2] = humans, cited from earlier work
# [3] = cited from earlier work
# [4] = rat, in vivo
# Protocol: The original male TK animals received 1000 mg/kg of SD-559 on Day 1 and continued on study. The protocol was amended to add additional TK male animals in Group 6 for Day 1 collection of TK samples at 875 mg/kg.
# Blood samples were collected from 3 subsets of 3 animals/sex on Day 1 and Day 28 at pre-dose, 0.25, 0.5, 1, 2, 4. 8 and 24 hours (hr) post-dose for groups 2 to 6 and from one subset of 3 animals/sex at 0.25 hr post-dose for the vehicle group (group 1). […] Non-compartmental analysis (NCA) of plasma concentration data was conducted using Phoenix® WinNonlin®, version 8.0.
# [5] = 200 mg SD-559 (pirfenidone) BID, Huang et al.; in ng/mL; cited from earlier work
# LPS-induced plasma TNFα = test: LPS-induced plasma TNF-α after oral pretreatment in rats; format: in vivo, Sprague-Dawley rats; settings: Mean ± St. Dev., n = 6-8; for Plasma TNFα concentrations 4 hours after LPS: vehicle 693 ± 553; for Plasma TNFα concentrations 1.5 hours after LPS: vehicle 75389 ± 29107
# Protocol: as §1, §2, §3
# [6] = cited from earlier work; remark: listed apart in the source
# [7] = 30 mg/kg oral pretreatment 1 hour prior to LPS injection
# [8] = 100 mg/kg oral pretreatment 1 hour prior to LPS injection
# [9] = 300 mg/kg oral pretreatment 1 hour prior to LPS injection
# [10] = Pirfenidone @801 mg, Rubino et al.
# [11] = Lancaster et al. 2017, frequencies as high as
# [12] = multinational post-marketing study
# [13] = single-center retrospective observational study, 351 patients
smiles,measurement,setting,value
"Cc1ccc(=O)n(-c2ccccc2)c1 [Pirfenidone, 5-methyl-1-phenyl-1H-pyridin-2-one]",Plasma IL-6 concentrations 4 hours after LPS,LPS-induced plasma IL-6; [7],8886 ± 5321 pg/mL
same,Plasma IL-6 concentrations 1.5 hours after LPS,LPS-induced plasma IL-6; [7],25173 ± 10651 pg/mL
same,Plasma IL-6 concentrations 4 hours after LPS,LPS-induced plasma IL-6; [8],4603 ± 2524 pg/mL
same,Plasma IL-6 concentrations 1.5 hours after LPS,LPS-induced plasma IL-6; [8],26226 ± 8434 pg/mL
same,Plasma IL-6 concentrations 4 hours after LPS,LPS-induced plasma IL-6; [9],2361 ± 1185 pg/mL
same,Plasma IL-6 concentrations 1.5 hours after LPS,LPS-induced plasma IL-6; [9],18692 ± 9996 pg/mL
same,Tolerability of single doses,[1],well tolerated
same,Share of recovered drug material excreted as unchanged pirfenidone,[2]; urine,less than 1%
same,Oral dose excreted in urine,[2],approximately 80%
same,"AUC, % Change Fed vs Fasted",[3]; [10],−15%
same,"Cmax, % Change Fed vs Fasted",[3]; [10],−49%
same,"Tmax, % Change Fed vs Fasted",[3]; [10],+500%
same,"Increase in Tmax, fed vs fasted","[3]; pirfenidone 801 mg dose, prior study",500%
same,Accumulation after multiple dosing for 28 Days,[4],No accumulation
same,observed Cmax,[5],2305
same,Plasma TNFα concentrations 4 hours after LPS,LPS-induced plasma TNFα; [7],346 ± 83 pg/mL
same,Plasma TNFα concentrations 1.5 hours after LPS,LPS-induced plasma TNFα; [7],46138 ± 20266 pg/mL
same,Plasma TNFα concentrations 4 hours after LPS,LPS-induced plasma TNFα; [8],207 ± 92 pg/mL
same,Plasma TNFα concentrations 1.5 hours after LPS,LPS-induced plasma TNFα; [8],22230 ± 16540 pg/mL
same,Plasma TNFα concentrations 4 hours after LPS,LPS-induced plasma TNFα; [9],131 ± 32 pg/mL
same,Plasma TNFα concentrations 1.5 hours after LPS,LPS-induced plasma TNFα; [9],11495 ± 10753 pg/mL
same,Fatigue frequency (TEAE rate),[6]; [11],≤ 52.4 per 100PEY
same,Nausea frequency (TEAE rate),[6]; [11],≤ 62.1 per 100 PEY
same,Patients with permanent treatment discontinuation due to adverse drug reactions,"[6]; PASSPORT long-term observational safety study, Cottin et al. 2018",28.7%
same,Treatment discontinuation rate with predominant gastrointestinal side-effects,[6]; b281,> 25%
same,Patients who had an adverse event,"[6]; compassionate use program, Raghu & Thickett 2013",44%
same,Patients who experienced an adverse event,[6]; [12],Approximately 73%
same,Patients with gastrointestinal symptoms,[6]; [12],38%
same,Patients with an ADR leading to discontinuation,[6]; patients aged <65 years,7.5%
same,Patients with an ADR leading to dose modification/interruption,[6]; patients aged <65 years,18.0%
same,Patients with an ADR leading to discontinuation,[6]; patients aged ≥80 years,20.9%
same,Patients with an ADR leading to dose modification/interruption,[6]; patients aged ≥80 years,32.7%
same,Elevations of AST and ALT levels to >3x ULN,[6]; phase III trials,3.2%
same,Loss of appetite,[6]; [13],17%
same,Nausea/vomiting,[6]; [13],15%
same,Share of reported AEs that were GI-related,[6]; [13],75%
